EC50 data for twelve compounds are collected here from patent US20150072969A1, “PHENYL ALKANOIC ACID DERIVATIVES AS GPR AGONISTS” (PIRAMAL ENTERPRISES LIMITED, priority 2012, published 2015).

A value given as a limit tells only on which side of the number the result lay.

The target of the assay is T1, human GPR40 (Homo sapiens, UniProt O14842).
T1 construct: expressed in transfected cells
T1 sequence (O14842 whole entry): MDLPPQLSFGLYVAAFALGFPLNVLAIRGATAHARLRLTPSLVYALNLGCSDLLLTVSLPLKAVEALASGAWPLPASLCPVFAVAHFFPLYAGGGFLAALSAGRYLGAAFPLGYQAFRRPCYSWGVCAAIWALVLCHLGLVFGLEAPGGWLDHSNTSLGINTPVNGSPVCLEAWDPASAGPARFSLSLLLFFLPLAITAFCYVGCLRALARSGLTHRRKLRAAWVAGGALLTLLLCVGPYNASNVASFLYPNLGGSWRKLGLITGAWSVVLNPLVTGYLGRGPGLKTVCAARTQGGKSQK
Kind of assay: Inositol phosphate accumulation assay in FFAR1 (GPR40) CHOK1 clone. To be noted: GPR40 agonist activity; intracellular inositol phosphate release in CHOK1 cells stably expressing recombinant human GPR40; 1 h incubation at 37° C. It counts as cell-based. The protocol:
The inositol phosphate accumulation assay was performed to characterise the GPR40 agonist activity of the compounds of the present invention.
The assay was carried out in accordance with the method substantially as described in Diabetes, 2008, 57(8):2211-2219 and PLoS One, 2011, 6(11):e27270.
A stable FFAR1 (GPR40) CHOK1 clone was used to determine the GPR40 agonist activity of the test compounds (compounds of the present invention synthesized in the above Examples). The stable FFAR1 (GPR40) CHOK1 clone expressing recombinant human GPR40 was generated according to the procedure described herein below.
Full-length human GPR40 cDNA (Accession Number: NM_005303) was cloned into mammalian expression vector (pReceiver) and was stably transfected into (Chinese Hamster Ovary) CHOK1 cells using Amaxa technology. 2 μg of pReceiver hGPR40 were transfected into 1×10^6 CHOK1 cells in 6 well plates. The cells were split into three 100 mm cell culture plates on the second day and geneticin (800 μg/ml) was added to the cell culture on the third day. The selection medium comprising Ham's F-12 K supplemented with FBS (10%) and geneticin (800 μg/ml) was changed every three days until colonies were formed. The colonies isolated were further purified (single cell cloning) after 14 days to obtain pure isogenic single cell homogenous population of cells expressing the GPR40 receptor protein on the cell surface. GPR40 receptor expression on cell surface was measured by flow cytometry. The in-house transgenic cell line (clone) created was labeled as FFAR1 (GPR40) CHOK1 clone.
FFAR1 (GPR40) CHOK1 cells were suspended in culture medium comprising Ham's F-12 K supplemented with FBS (10%) and geneticin (800 μg/ml). Cells were seeded at a density of 2×10^4 cells per well in a 384 well tissue culture plate and cultured overnight. The medium was discarded and the cells were further resuspended in a stimulation buffer comprising HEPES (10 mM), glucose (5.5 mM), CaCl2 (1 mM), NaCl (150 mM), KCl (4.2 mM), MgCl2 (0.5 mM) and LiCl (50 mM) having a pH of 7.6. The test compounds (representative compounds of Formula (I)) 10 mM stock were prepared in DMSO and subsequently log fold dilution of the test compounds were carried out in the stimulation buffer. Various concentrations of the test compounds and the standard DMSO solution were added to each well. The plates were further incubated at 37° C., 5% CO2 incubator for 1 h. The final concentration of the test compounds in the each well varied from 1 μM to 10 μM. The DMSO concentration in the assay was 0.1% or less. After incubation, lysis reagent and anti-Tb conjugate were added to each well. The intracellular Inositol Phosphate release and accumulation in the test compounds were measured by the binding ability of the anti-Tb conjugate with the inositol phosphate inherently produced in each well as compared with the inositol phosphate coupled to dye d2 added externally to each well. The plates were then read using Perkin Elmer (Envision) plate reader and the fluorescence signal was captured. The EC50 values for the test compounds were calculated from the non linear regression sigmoidal curve graphs plotted between the concentrations of the test compounds and the fluorescence intensity.
What is called EC50 is the concentration needed to bring the measured effect to its halfway point. As to `Cc1cc(OCCCS(C)(=O)=O)cc(C)c1-c1cccc(COc2ccc(C3(CC(=O)O)CN(S(C)(=O)=O)C3)cc2)c1` [Example 94, 2-(3-(4-((2′,6′-Dimethyl-4′-(3-(methylsulfonyl)propoxy)-[1,1′-biphenyl]-3-yl)methoxy)phenyl)-1-(methylsulfonyl)azetidin-3-yl)acetic acid], the EC50 is more than 500 nM. In the case of `Cc1cc(OCC2CCS(=O)(=O)C2)cc(C)c1-c1cccc(COc2ccc(C3(CC(=O)O)COC3)cc2)c1` (stereo not drawn) [Example 53, 2-(3-(4-((4′-((1,1-Dioxidotetrahydrothiophen-3-yl)methoxy)-2′,6′-dimethyl-[1,1′-biphenyl]-3-yl)methoxy)phenyl)oxetan-3-yl)acetic acid] it was less than 100 nM. In the case of `Cc1ccc(COc2ccc(C3(CC(=O)O)COC3)cc2)cc1C(F)(F)F` [Example 28, 2-(3-(4-((4-Methyl-3-(trifluoromethyl)benzyl)oxy)phenyl)oxetan-3-yl)acetic acid] it was 100 to 500 nM.

`Cc1cc(OCC2CCOC2)cc(C)c1-c1cccc(COc2ccc(C3(CC(=O)O)COC3)cc2)c1` (stereo not drawn) [Example 41, 2-(3-(4-((2′,6′-Dimethyl-4′-((tetrahydrofuran-3-yl)methoxy)-[1,1′-biphenyl]-3-yl)methoxy)phenyl)oxetan-3-yl)acetic acid]: the EC50 was less than 100 nM.

Turning to `N#Cc1ccccc1-c1ccc(COc2ccc(C3(CC(=O)O)COC3)cc2)cc1` [Example 6, 2-(3-(4-((2′-Cyano-[1,1′-biphenyl]-4-yl)methoxy)phenyl)oxetan-3-yl)acetic acid], the concentration for a half-maximal effect (EC50) is 100 to 500 nM. In the case of `Cc1cc(OC2CCCC2)cc(C)c1-c1cccc(COc2ccc(C3(CC(=O)O)COC3)cc2)c1` [Example 59, 2-(3-(4-((4′-(Cyclopentyloxy)-2′,6′-dimethyl-[1,1′-biphenyl]-3-yl)methoxy)phenyl)oxetan-3-yl)acetic acid] it was more than 500 nM; in that of `Cc1cc(OCC2(CO)COC2)cc(C)c1-c1cccc(COc2ccc(C3(CC(=O)O)COC3)cc2)c1` [Example 55, 2-(3-(4-((4′-((3-(Hydroxymethyl)oxetan-3-yl)methoxy)-2′,6′-dimethyl-[1,1′-biphenyl]-3-yl)methoxy)phenyl)oxetan-3-yl)acetic acid], less than 100 nM; in that of `Cc1cc(OCC2CCS(=O)(=O)CC2)cc(C)c1-c1cccc(COc2ccc(C3(CC(=O)O)COC3)cc2)c1` [Example 45, 2-(3-(4-((4′-((1,1-Dioxidotetrahydro-2H-thiopyran-4-yl)methoxy)-2′,6′-dimethyl-[1,1′-biphenyl]-3-yl)methoxy)phenyl)oxetan-3-yl)acetic acid], less than 100 nM.

Take `CC1(C)CCC(C)(C)c2cc(COc3ccc(C4(CC(=O)O)COC4)cc3)ccc21` [Example 18, 2-(3-(4-((5,5,8,8-Tetramethyl-5,6,7,8-tetrahydronaphthalen-2-yl)methoxy)phenyl)oxetan-3-yl)acetic acid]: the EC50 lay in the range of 100 to 500 nM. In the case of `O=C(O)CC1(c2ccc(OCc3ccc(-c4ccccc4)cc3)c(F)c2)COC1` [Example 14, 2-(3-(4-([1,1′-Biphenyl]-4-ylmethoxy)-3-fluorophenyl)oxetan-3-yl)acetic acid] it was more than 500 nM. Next, `Cc1cc(OC2CCS(=O)(=O)CC2)cc(C)c1-c1cccc(COc2ccc(C3(CC(=O)O)COC3)cc2)c1` [Example 57, 2-(3-(4-((4′-((1,1-Dioxidotetrahydro-2H-thiopyran-4-yl)oxy)-2′,6′-dimethyl-[1,1′-biphenyl]-3-yl)methoxy)phenyl)oxetan-3-yl)acetic acid]: 100 to 500 nM. In the case of `O=C(O)CC1(c2ccc(OCc3cccc(-c4ccc(OCC5CCS(=O)(=O)C5)cc4Cl)c3)cc2)COC1` (stereo not drawn) [Example 68, 2-(3-(4-((2′-Chloro-4′-((1,1-dioxidotetrahydrothiophen-3-yl)methoxy)-[1,1′-biphenyl]-3-yl)methoxy)phenyl)oxetan-3-yl)acetic acid] it was less than 100 nM.
